These results are taken from patent USRE47689E1, “Compounds for treating spinal muscular atrophy” (PTC Therapeutics, Inc., priority 2011, dated 2019).

For data set [1], the system named is SMN2 minigene (full length SMN2 minigene mRNA containing SMN2 exon 7). In words: SMN2 minigene mRNA splicing RT-qPCR assay in cultured cells. The note with it: Homo sapiens, HEK293-H, read-out: EC1.5x for production of full length SMN2 mRNA. The format is cell-based, human. The method, boiled down: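 Lysates → one-step RT-qPCR, minigene-specific primers (0.4 μM final) + GAPDH multiplex, 40 cycles. FL/GAPDH vs DMSO; EC1.5x, star-binned.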
For orientation: Quantitative PCR measures a nucleic acid by following its amplification.

Another data set relates to Smn protein. Kind of data set: Smn protein assay in cultured cells (SMN HTRF). Conditions: 48 hours; for EC1.5x (concentration giving 1.5-fold Smn protein increase): SMA Type 1 patient fibroblast cells (GM03813), 7-point concentration curve, SMN HTRF, concentration producing 1.5 times Smn protein vs DMSO vehicle control, read-out: EC1.5x for Smn protein expression; for maximum fold (Fold) increase of Smn protein: SMA patient fibroblast cells, 7-point concentration data, fold increase relative to vehicle control (SMN HTRF). In kind it is cell-based, human. In short, it runs like this: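 Smn in SMA fibroblast lysates, measured by anti-SMN HTRF after 48 h compound exposure; EC1.5x from fold change over vehicle.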
Background: TR-FRET usually uses a lanthanide donor and a delayed reading to cut background.

Where [2] appears, read: HEK293H cells stably transfected with SMN2-A minigene, 24 hours, 7-point concentration curve, 1.5-fold relative to vehicle-treated cells.

Molecules are shown by their SMILES. Where two headings read alike, the source gives them in different places.

A word on the melting point: it is the temperature, or range, at which the solid turns liquid. In turn, `CN1CCN(c2ccc3cc(-c4cn5cccnc5n4)c(=O)oc3c2)CC1` [Compound 87, 3-(imidazo[1,2-a]pyrimidin-2-yl)-7-(4-methylpiperazin-1-yl)-2H-chromen-2-one] yielded a melting point above 310 °C. In addition, the EC (1.5-fold) in data set [1] (setting [2]) lay in the range of 0.3 to 1 µM. In the data set on Smn protein, the EC1.5x (concentration giving 1.5-fold Smn protein increase) lay within 1000 to 3000 nM; the “maximum fold (Fold) increase of Smn protein” value (shortened to “maximum fold (Fold) increase”) is “**** (fold increase between >1.5 and ≤1.65)”.
In turn, `Cl.O=c1oc2cc(N3CCNCC3)ccc2cc1-c1nc2cc(F)ccc2o1` [Compound 19, 3-(5-fluoro-1,3-benzoxazol-2-yl)-7-(piperazin-1-yl)-2H-chromen-2-one hydrochloride] had a melting point of 320 to 325 °C. For the same molecule, the EC (1.5-fold) in data set [1] (setting [2]) was 1 to 3 µM. For the same molecule, in the data set with Smn protein, the “maximum fold (Fold) increase” value is “* (maximum fold increase of ≤1.2)”.
The molecule `CN1CCN(c2ccc3cc(-c4cn5ncccc5n4)c(=O)oc3c2)CC1` [Cpd 128, 3-(imidazo[1,2-b]pyridazin-2-yl)-7-(4-methylpiperazin-1-yl)-2H-chromen-2-one] returned a melting point of 284 to 285 °C. The EC (1.5-fold) in data set [1] (setting [2]) lay within 1 to 3 µM. In addition, in the data set with Smn protein, the EC1.5x (concentration giving 1.5-fold Smn protein increase) was 3000 to 10000 nM; the “maximum fold (Fold) increase” value is “*** (fold increase between >1.35 and ≤1.5)”.
`Cc1cn2cc(-c3cc4ccc(N5CCN6CCC[C@H]6C5)cc4oc3=O)ccc2n1` [Cpd 651, 7-[(8aS)-hexahydropyrrolo[1,2-a]pyrazin-2(1H)-yl]-3-(2-methylimidazo[1,2-a]pyridin-6-yl)-2H-chromen-2-one] showed a melting point of 231 to 233 °C. For the same molecule, the EC (1.5-fold) in data set [1] (setting [2]) is below 0.1 µM. In the data set with Smn protein, the EC1.5x (concentration giving 1.5-fold Smn protein increase) was below 300 nM; the “maximum fold (Fold) increase” value was “*** (fold increase between >1.35 and ≤1.5)”.
As for `Cc1cn2cc(-c3cc4ccc(OCCNCCO)cc4oc3=O)nc2c(C)n1` [Compound 959, 3-(6,8-dimethylimidazo[1,2-a]pyrazin-2-yl)-7-{2-[(2-hydroxyethyl)amino]ethoxy}-2H-chromen-2-one], the melting point was 175 to 177 °C. Besides, the EC (1.5-fold) in data set [1] (setting [2]) is below 0.1 µM. Further, in the data set on Smn protein, the EC1.5x (concentration giving 1.5-fold Smn protein increase) is 300 to 1000 nM; the “maximum fold (Fold) increase” value was “*** (fold increase between >1.35 and ≤1.5)”.
Molecule `Cc1cn2cc(-c3cc4ccc(N5CC[C@H]6CNC[C@H]65)cc4oc3=O)nc2c(C)n1` [Compound 687, 3-(6,8-dimethylimidazo[1,2-a]pyrazin-2-yl)-7-[(3aS,6aS)-hexahydropyrrolo[3,4-b]pyrrol-1(2H)-yl]-2H-chromen-2-one] had a melting point of 243 to 253 °C. The EC (1.5-fold) in data set [1] (setting [2]) was below 0.1 µM. Besides, in the data set with Smn protein, the EC1.5x (concentration giving 1.5-fold Smn protein increase) was in the range of 1000 to 3000 nM; the “maximum fold (Fold) increase” value was “*** (fold increase between >1.35 and ≤1.5)”.
Consider `CN1CCN(c2ccc3cc(-c4cn5cc(F)ccc5n4)c(=O)oc3c2)CC1` [Compound 138, 3-(6-fluoroimidazo[1,2-a]pyridin-2-yl)-7-(4-methylpiperazin-1-yl)-2H-chromen-2-one], for which the melting point was in the range of 266 to 269 °C. Moreover, the EC (1.5-fold) in data set [1] (setting [2]) is 1 to 3 µM. The “maximum fold (Fold) increase” value in the data set on Smn protein is “** (fold increase between >1.2 and ≤1.35)”.
The molecule `Cc1nccn2cc(-c3cc4ccc(N5CCN(C)CC5)cc4oc3=O)nc12` [Compound 551, 3-(8-methylimidazo[1,2-a]pyrazin-2-yl)-7-(4-methylpiperazin-1-yl)-2H-chromen-2-one] displayed a melting point of 221 to 222 °C. For the same molecule, in data set [1] (setting [2]), the EC (1.5-fold) was 0.3 to 1 µM. In addition, in the data set on Smn protein, the EC1.5x (concentration giving 1.5-fold Smn protein increase) was below 300 nM; the “maximum fold (Fold) increase” value was “*** (fold increase between >1.35 and ≤1.5)”.
In turn, `C[C@@H]1CN(c2ccc3cc(-c4cc5cnccc5s4)c(=O)oc3c2)C[C@H](C)N1` [Cpd 630, 7-[(3R,5S)-3,5-dimethylpiperazin-1-yl]-3-(thieno[3,2-c]pyridin-2-yl)-2H-chromen-2-one] displayed a melting point of 163 to 165 °C. Moreover, the EC (1.5-fold) in data set [1] (setting [2]) lay within 0.3 to 1 µM. In addition, in the data set with Smn protein, the “maximum fold (Fold) increase” value is “* (maximum fold increase of ≤1.2)”.
In turn, `O=c1oc2cc(N3CCNCC3)ccc2cc1-c1cccnc1C(F)(F)F` [Cpd 124, 7-(piperazin-1-yl)-3-[2-(trifluoromethyl)pyridin-3-yl]-2H-chromen-2-one] showed a melting point of 197 to 200 °C. For the same molecule, the EC (1.5-fold) in data set [1] (setting [2]) is 0.3 to 1 µM. Further, the “maximum fold (Fold) increase” value with Smn protein was “** (fold increase between >1.2 and ≤1.35)”.
On to `Cc1cn2cc(-c3cc4ccc(C5CCN(C6CC6)CC5)cc4oc3=O)nc2c(C)n1` [Compound 854, 7-(1-cyclopropylpiperidin-4-yl)-3-(6,8-dimethylimidazo[1,2-a]pyrazin-2-yl)-2H-chromen-2-one], for which the melting point was in the range of 236 to 243 °C. Moreover, the EC (1.5-fold) in data set [1] (setting [2]) is below 0.1 µM. Also, in the data set on Smn protein, the EC1.5x (concentration giving 1.5-fold Smn protein increase) is below 300 nM and the “maximum fold (Fold) increase” value is on record as “***** (fold increase >1.65)”.
Molecule `COc1ccn2cc(-c3cc4ccc(N5CCN(C)CC5)cc4oc3=O)nc2c1` [Compound 435, 3-(7-methoxyimidazo[1,2-a]pyridin-2-yl)-7-(4-methylpiperazin-1-yl)-2H-chromen-2-one] yielded a melting point of 251 to 259 °C. The EC (1.5-fold) in data set [1] (setting [2]) was 1 to 3 µM. Moreover, the “maximum fold (Fold) increase” value in the data set on Smn protein is reported as “* (maximum fold increase of ≤1.2)”.
Turning to `Cc1cn2cc(-c3cc4ccc(N5CCN(C(C)C)CC5)cc4oc3=O)cc2cn1` [Compound 692, 3-(3-methylpyrrolo[1,2-a]pyrazin-7-yl)-7-[4-(propan-2-yl)piperazin-1-yl]-2H-chromen-2-one], the melting point is 221 to 225 °C. Moreover, the EC (1.5-fold) in data set [1] (setting [2]) was below 0.1 µM. Moreover, in the data set with Smn protein, the EC1.5x (concentration giving 1.5-fold Smn protein increase) is below 300 nM; the “maximum fold (Fold) increase” value is “**** (fold increase between >1.5 and ≤1.65)”.
For the molecule `Cc1cccc(-c2cc3ccc(N4CCN[C@@H](C)C4)cc3oc2=O)c1` [Compound 512, 3-(3-methylphenyl)-7-[(3S)-3-methylpiperazin-1-yl]-2H-chromen-2-one], the melting point lay in the range of 101 to 103 °C. Besides, the EC (1.5-fold) in data set [1] (setting [2]) lay within 1 to 3 µM. In addition, the “maximum fold (Fold) increase” value in the data set on Smn protein is on record as “* (maximum fold increase of ≤1.2)”.
For `O=c1oc2cc(N3CCNCC3)ccc2cc1-c1cn2cccc(C(F)(F)F)c2n1` [Compound 209, 7-(piperazin-1-yl)-3-[8-(trifluoromethyl)imidazo[1,2-a]pyridin-2-yl]-2H-chromen-2-one], the melting point was in the range of 249 to 252 °C. In addition, in data set [1] (setting [2]), the EC (1.5-fold) lay within 0.3 to 1 µM. Moreover, the “maximum fold (Fold) increase” value in the data set with Smn protein is “* (maximum fold increase of ≤1.2)”.
Regarding `Cc1ccc2oc(-c3cc4ccc(N5C[C@@H](C)N[C@@H](C)C5)cc4oc3=O)cc2n1` [Compound 720, 7-[(3R,5S)-3,5-dimethylpiperazin-1-yl]-3-(5-methylfuro[3,2-b]pyridin-2-yl)-2H-chromen-2-one], the melting point is 179 to 183 °C. In data set [1] (setting [2]), the EC (1.5-fold) lay within 0.3 to 1 µM. In the data set with Smn protein, the “maximum fold (Fold) increase” value is “** (fold increase between >1.2 and ≤1.35)”.
As for `Cc1cccc(-c2cc3ccc(N4CCNCC4)cc3oc2=O)c1` [Compound 511, 3-(3-methylphenyl)-7-(piperazin-1-yl)-2H-chromen-2-one], the melting point lay within 118 to 120 °C. Besides, in data set [1] (24 h), the EC (1.5-fold) fell in the range of 1 to 3 µM. Further, the “maximum fold (Fold) increase” value with Smn protein is given as “* (maximum fold increase of ≤1.2)”.
Regarding `O=c1oc2cc(N3CCNCC3)cc(F)c2cc1-c1cn2cccnc2n1` [Compound 312, 5-fluoro-3-(imidazo[1,2-a]pyrimidin-2-yl)-7-(piperazin-1-yl)-2H-chromen-2-one], the melting point fell in the range of 298 to 302 °C. Further, the EC (1.5-fold) in data set [1] (setting [2]) was in the range of 0.3 to 1 µM. Also, the “maximum fold (Fold) increase” value in the data set on Smn protein was “** (fold increase between >1.2 and ≤1.35)”.
Turning to `Cc1ccn2nc(-c3cc4ccc(N5CCNC(C)(C)C5)cc4oc3=O)cc2c1` [Compound 305, 7-(3,3-dimethylpiperazin-1-yl)-3-(5-methylpyrazolo[1,5-a]pyridin-2-yl)-2H-chromen-2-one], the melting point is 203 to 205 °C. In addition, the EC (1.5-fold) in data set [1] (setting [2]) was 0.3 to 1 µM. For the same molecule, the “maximum fold (Fold) increase” value in the data set with Smn protein is “** (fold increase between >1.2 and ≤1.35)”.
For the molecule `CC(C)Oc1cccc(-c2cc3ccc(N4CCNCC4)cc3oc2=O)n1` [Cpd 385, 7-(piperazin-1-yl)-3-[6-(propan-2-yloxy)pyridin-2-yl]-2H-chromen-2-one], the melting point is 177 to 180 °C. The EC (1.5-fold) in data set [1] (setting [2]) was 1 to 3 µM. Further, the “maximum fold (Fold) increase” value with Smn protein is “* (maximum fold increase of ≤1.2)”.
As to `Cc1cn2cc(-c3cc4ccc(N(C)[C@@H]5CCN(C)C5)cc4oc3=O)nc2c(C)n1` [Compound 707, 3-(6,8-dimethylimidazo[1,2-a]pyrazin-2-yl)-7-{methyl[(3R)-1-methylpyrrolidin-3-yl]amino}-2H-chromen-2-one], the melting point lay in the range of 179 to 186 °C. The EC (1.5-fold) in data set [1] (setting [2]) was below 0.1 µM. Also, in the data set on Smn protein, the EC1.5x (concentration giving 1.5-fold Smn protein increase) is 300 to 1000 nM; the “maximum fold (Fold) increase” value is “**** (fold increase between >1.5 and ≤1.65)”.
